From BindingDB's records for doi:10.1021/acs.biochem.7b00078 (The University of Queensland, 2017)
Peptide text beside a SMILES is read from it. * marks the point of attachment. FITC = O=C1OC2(c3ccc(O)cc3Oc3cc(O)ccc32)c2ccc(NC(=S)*)cc21; Biotin = O=C1N[C@H]2[C@H](CS[C@H]2CCCCC(=O)*)N1

Key:
[1] = biological target: T1, Na(+)/H(+) exchange regulatory cofactor NHE-RF1 [1-140] (Homo sapiens, UniProt O14745); experiment: Fluorescent Polarization Competition Assay; conditions: 23 °C
T1 construct: 1-140
T1 sequence (O14745 whole entry): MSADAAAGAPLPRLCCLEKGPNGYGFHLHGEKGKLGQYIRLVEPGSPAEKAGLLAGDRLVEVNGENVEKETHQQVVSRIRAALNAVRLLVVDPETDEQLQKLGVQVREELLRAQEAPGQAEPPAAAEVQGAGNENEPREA
Protocol: (§1) Competition assays were performed in FP buffer (DTT was avoided for Cys-PTHRct-9) containing fixed concentrations of both the fluorescently labeled peptide andprotein following the protocol described by Madden and coworkers. [Cushing et al., Biochemistry, 47:10084-10098] This mixture was equilibrated for 20 min in the dark at room temperature. The unlabeled competitor peptide was dissolved and serially diluted in storage buffer supplemented with 5% DMSO (Sigma). Each serial dilution was aliquoted at 1/10 final volume, to which was added 9/10 volume of the protein/peptide mixture. All FP assays were performed in a 96-well format. Polarized fluorescence intensities were measured at 23 °C with a PerkinElmer Wallac Victor3 multilabel counter using excitation and emission wavelengths of 485 and 535 nm, respectively, for the FITC-labeled peptide.

[2] = biological target: T2, Na(+)/H(+) exchange regulatory cofactor NHE-RF1 [133-300] (Homo sapiens, UniProt O14745); experiment: Fluorescent Polarization Competition Assay; conditions: 23 °C
T2 construct: 133-300
T2 sequence (O14745 whole entry): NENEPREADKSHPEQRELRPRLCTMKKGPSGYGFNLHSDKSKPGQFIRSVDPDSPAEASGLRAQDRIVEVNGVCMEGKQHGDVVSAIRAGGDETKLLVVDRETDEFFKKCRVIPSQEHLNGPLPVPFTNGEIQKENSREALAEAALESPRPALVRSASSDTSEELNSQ
Protocol: as §1

[3] = biological target: T1, Na(+)/H(+) exchange regulatory cofactor NHE-RF1 [1-140]; experiment: Isothermal Titration Calorimetry (ITC); conditions: pH 8; 25 °C
Protocol: (§2) ITC measurements were conducted on a Microcal iTC200 (Malvern Instruments) in buffer consisting of 25 mM Tris (pH 8.0) and 100 mM NaCl. Proteins were exchanged into ITC buffer by gel filtration using a Superdex200 column. Wild-type modified synthetic peptides were purchased from Genscript and are described in Results. One millimolar PTHR peptides (wild-type and mutant variants) were titrated into 100 μM individual proteins, PDZ1 or PDZ2, at 25 °C.

[4] = biological target: T2, Na(+)/H(+) exchange regulatory cofactor NHE-RF1 [133-300]; experiment: Isothermal Titration Calorimetry (ITC); conditions: pH 8; 25 °C
Protocol: as §2

[5] = biological target: T1, Na(+)/H(+) exchange regulatory cofactor NHE-RF1 [1-140]; experiment: Surface Plasmon Resonance (SPR); conditions: pH 7.4; 15 °C
Protocol: (§3) SPR measurements were performed with a Biacore X100 instrument (GE Healthcare Life Sciences, Piscataway, NJ) at 15.0 °C. The biotinylated PTHRct-22 ligand was immobilized on an SA streptavidin sensor chip (GE Healthcare Life Sciences) usingthe manufacturer's protocol until the desired response target was reached. PDZ1 or PDZ2 analyte, dissolved in 10 mM HEPES buffer (pH 7.4), 150 mM NaCl, 3 mM EDTA, and 0.005% surfactant polysorbate 20, was injected on the PTHRct-coated sensor surface at increasing concentrations from 10 nM to 100 μM. At the end of each ligand injection−dissociation cycle, the sensor chip was regenerated with 4.0 M MgCl2, 50 mM triethylamine (pH 9.15), and HBS-EP buffer.

[6] = biological target: T2, Na(+)/H(+) exchange regulatory cofactor NHE-RF1 [133-300]; experiment: Surface Plasmon Resonance (SPR); conditions: pH 7.4; 15 °C
Protocol: as §3

H-LQEEWETVM-OH [LQEEWETVM]
Ki ([1]; pH 7.4): 1.4 µM

CSCC[C@H](NC(=O)[C@@H](NC(=O)[C@@H](NC(=O)[C@H](CCC(=O)O)NC(=O)[C@H](Cc1c[nH]c2ccccc12)NC(=O)[C@H](CCC(=O)O)NC(=O)[C@H](CCC(=O)O)NC(=O)[C@H](CCC(N)=O)NC(=O)[C@H](CC(C)C)NC(=S)Nc1ccc2c(c1)C(=O)OC21c2ccc(O)cc2Oc2cc(O)ccc21)[C@@H](C)O)C(C)C)C(=O)O [FITC-LQEEWETVM] ({FITC}-LQEEWETVM-OH)
Kd ([1]; pH 7): 1 µM | Kd ([2]; pH 7): 0.6 µM

H-QEEWETVM-OH [QEEWETVM]
Kd [3]: 11.7 µM | Kd [4]: 9.7 µM

CSCC[C@H](NC(=O)[C@@H](NC(=O)[C@@H](NC(=O)[C@H](CCC(=O)O)NC(=O)[C@H](Cc1c[nH]c2ccccc12)NC(=O)[C@H](CCC(=O)O)NC(=O)[C@H](CCC(=O)O)NC(=O)[C@H](CCC(N)=O)NC(=O)[C@H](CC(C)C)NC(=O)[C@H](CC(C)C)NC(=O)[C@H](C)NC(=O)[C@@H]1CCCN1C(=O)[C@@H]1CCCN1C(=O)[C@H](CCCNC(=N)N)NC(=O)[C@H](CCC(=O)O)NC(=O)[C@@H]1CCCN1C(=O)[C@H](CS)NC(=O)[C@H](CO)NC(=O)[C@H](C)NC(=O)[C@H](CCC(=O)O)NC(=O)[C@H](CCC(=O)O)NC(=O)[C@H](CC(=O)O)NC(=O)CCCC[C@@H]1SC[C@@H]2NC(=O)N[C@@H]21)[C@@H](C)O)C(C)C)C(=O)O (Biotin-DEEASCPERPPALLQEEWETVM-OH)
Kd [5]: 16 µM | Kd [6]: 11.5 µM | Ki ([2]; pH 7.4): 7 µM
